In patent US20130289070A1, “Use of Levocabastine for Modulating Generation of Pro-Inflammatory Cytokines” (Bausch & Lomb Incorporated, priority 2007, published 2013):

Tested on: EoL-1 (human eosinophilic leukaemia cell line) cells
Assay: TNF-α-induced cytokine release, EoL-1 cells differentiated with PMA (Luminex)
Type: cell-based
Parameters: key to IL-1α (PMA), p of decrement / IL-1β (PMA), p of decrement / IL-1ra (PMA), p of decrement / IL-5 (PMA), p of decrement / IL-7 (PMA), p of decrement / IL-8 (PMA), p of decrement / IP-10 (PMA), p of decrement / MCP-1 (PMA), p of decrement / MIP-1β (PMA), p of decrement / RANTES (PMA), p of decrement / VEGF (PMA), p of decrement / Fractalkine (PMA), p of decrement / MIP-1α (PMA), p of decrement: ns = non significant
Procedure: EoL-1 (human eosinophilic leukaemia cell line) cells (Saito et al., 1985; Mayumi, 1992) were maintained in RPMI-1640 medium with L-glutamine supplemented with 10% (v/v) FBS at 37° C. in a humidified atmosphere with 5% CO2. Where indicated, 24 h before the experiment 25 ng/mL PMA ((phorbol 12-myristate 13-acetate, purchased from Sigma Aldrich) was added to the medium to induce eosinophil granulation and differentiation (Ohtsu et al., 1993; Zimmermann et al., 2000).
Half-million cells were aliquoted per point in a 24 well plate; each experiment was performed in triplicate and carried out in parallel with eosinophils differentiated and non differentiated with PMA (25 ng/mL, 24 h). Cells were suspended in low serum medium (RPMI-1640, 0.1% (v/v) FBS). TNF-α was used to induce cytokine secretion as previously described by Steube et al. (2000), and the net release was obtained by comparison to the basal (non-TNF-α treated). In the first experiment we evaluated the concentration and time relation between TNF-α stimulation and cytokine release. Therefore, 5, 10, and 25 ng/mL of TNF-α was administered to the cells at 0, ½, 1, 2, 3, 6, 12 and 24 h (data not shown). An aliquot of 150 μL of supernate was collected for cytokines' analysis. […] Differentiated and non-differentiated EoL-1 cells were exposed from 0.1 to 2.3 mM levocabastine ([…]Levocabastine 0.05% solution eye drops containing cyclodextrins, without benzalkonium chloride), and aliquots of the supernates were collected after 12 and 24 h. The content of cytokines at time zero was estimated by treating the cells with 400 nM calcimycin (A-23187), which is a cytolytic agent that frees all the mediators from the cytoplasmic compartment. In addition, for each experiment we tested the effect of the vehicle, which was added to the wells in a concentration equal to the maximum amount used for drug dilution.
Samples (supernates 12 and 24 h) in triplicate were analyzed using Luminex 200™ (Luminex, Austin, Tex.) and Beadview software v1.0 (Upstate Cell Signaling Solutions, Temecula, Calif.).
All data are presented as mean±SEM for the indicated number of experiments. Statistical significance was determined by Newman-Keuls test after ANOVA using GraphPad Prism (version 3.0; GraphPad Software Inc., San Diego, Calif., USA). P-values<0.05 were considered to be significant.

[1] = 24 h, Levocabastine 2 mM vs TNF-α
[2] = 24 h, TNF-α 5 ng + Levocabastine 2 mM vs TNF-α
[3] = 24 h, TNF-α 10 ng + Levocabastine 2 mM vs TNF-α
[4] = 24 h, TNF-α 20 ng + Levocabastine 2 mM vs TNF-α
[5] = 24 h, TNF-α 5, 10, 20 ng + Levocabastine 2 mM vs TNF-α
[6] = 24 h, VCAM-1 + Levocabastine 2 mM vs VCAM-1

SMILES: C[C@@H]1CN([C@H]2CC[C@](C#N)(c3ccc(F)cc3)CC2)CC[C@]1(C(=O)O)c1ccccc1 [Levocabastine, levocabastine]
- IL-12p40 (PMA), p of decrement [1]: P < 0.001
- IP-10 (PMA), p of decrement [1]: ns
- MCP-1 (PMA), p of decrement [1]: ns
- MIP-1α (PMA), p of decrement [1]: Increase
- MIP-1β (PMA), p of decrement [1]: Increase
- RANTES (PMA), p of decrement [1]: Increase
- TGF-α (PMA), p of decrement [1]: ns
- VEGF (PMA), p of decrement [1]: P < 0.001
- Fractalkine (PMA), p of decrement [2]: ns
- G-CSF (PMA), p of decrement [2]: ns
- GM CSF (PMA), p of decrement [2]: ns
- IL-1β (PMA), p of decrement [2]: ns
- IL-5 (PMA), p of decrement [2]: ns
- IL-6 (PMA), p of decrement [2]: ns
- IL-7 (PMA), p of decrement [2]: ns
- IL-8 (PMA), p of decrement [2]: P < 0.001
- IL-10 (PMA), p of decrement [2]: ns
- IL-12p40 (PMA), p of decrement [2]: ns
- IP-10 (PMA), p of decrement [2]: ns
- MCP-1 (PMA), p of decrement [2]: ns
- MIP-1α (PMA), p of decrement [2]: ns
- MIP-1β (PMA), p of decrement [2]: ns
- TGF-α (PMA), p of decrement [2]: ns
- VEGF (PMA), p of decrement [2]: P < 0.05
- Fractalkine (PMA), p of decrement [3]: ns
- G-CSF (PMA), p of decrement [3]: ns
- GM CSF (PMA), p of decrement [3]: ns
- IL-1β (PMA), p of decrement [3]: ns
- IL-5 (PMA), p of decrement [3]: ns
- IL-6 (PMA), p of decrement [3]: ns
- IL-7 (PMA), p of decrement [3]: ns
- IL-8 (PMA), p of decrement [3]: P < 0.001
- IL-10 (PMA), p of decrement [3]: ns
- IL-12p40 (PMA), p of decrement [3]: ns
- IP-10 (PMA), p of decrement [3]: ns
- MCP-1 (PMA), p of decrement [3]: ns
- MIP-1α (PMA), p of decrement [3]: ns
- MIP-1β (PMA), p of decrement [3]: ns
- TGF-α (PMA), p of decrement [3]: ns
- VEGF (PMA), p of decrement [3]: ns
- Fractalkine (PMA), p of decrement [4]: ns
- G-CSF (PMA), p of decrement [4]: ns
- GM CSF (PMA), p of decrement [4]: ns
- IL-1β (PMA), p of decrement [4]: ns
- IL-5 (PMA), p of decrement [4]: ns
- IL-6 (PMA), p of decrement [4]: ns
- IL-7 (PMA), p of decrement [4]: ns
- IL-8 (PMA), p of decrement [4]: P < 0.001
- IL-10 (PMA), p of decrement [4]: ns
- IL-12p40 (PMA), p of decrement [4]: ns
- IP-10 (PMA), p of decrement [4]: ns
- MCP-1 (PMA), p of decrement [4]: ns
- MIP-1α (PMA), p of decrement [4]: ns
- MIP-1β (PMA), p of decrement [4]: ns
- TGF-α (PMA), p of decrement [4]: ns
- VEGF (PMA), p of decrement [4]: P < 0.05
- IL-1ra (PMA), p of decrement [5]: increase of cytokine secretion
- IL-1α (PMA), p of decrement [5]: increase of cytokine secretion
- RANTES (PMA), p of decrement [5]: increase of cytokine secretion
- Fractalkine (PMA), p of decrement (24 h, TNF-α vs Lev 0.1 mM): ns
- IL-1ra (PMA), p of decrement (24 h, TNF-α vs Lev 0.1 mM): ns
- IL-1α (PMA), p of decrement (24 h, TNF-α vs Lev 0.1 mM): ns
- IL-1β (PMA), p of decrement (24 h, TNF-α vs Lev 0.1 mM): p < 0.05
- IL-5 (PMA), p of decrement (24 h, TNF-α vs Lev 0.1 mM): ns
- IL-7 (PMA), p of decrement (24 h, TNF-α vs Lev 0.1 mM): ns
- IL-8 (PMA), p of decrement (24 h, TNF-α vs Lev 0.1 mM): ns
- IP-10 (PMA), p of decrement (24 h, TNF-α vs Lev 0.1 mM): ns
- MCP-1 (PMA), p of decrement (24 h, TNF-α vs Lev 0.1 mM): ns
- MIP-1α (PMA), p of decrement (24 h, TNF-α vs Lev 0.1 mM): ns
- MIP-1β (PMA), p of decrement (24 h, TNF-α vs Lev 0.1 mM): ns
- RANTES (PMA), p of decrement (24 h, TNF-α vs Lev 0.1 mM): ns
- VEGF (PMA), p of decrement (24 h, TNF-α vs Lev 0.1 mM): ns
- Fractalkine (PMA), p of decrement (24 h, TNF-α vs Lev 0.5 mM): ns
- IL-1ra (PMA), p of decrement (24 h, TNF-α vs Lev 0.5 mM): ns
- IL-1α (PMA), p of decrement (24 h, TNF-α vs Lev 0.5 mM): ns
- IL-1β (PMA), p of decrement (24 h, TNF-α vs Lev 0.5 mM): ns
- IL-5 (PMA), p of decrement (24 h, TNF-α vs Lev 0.5 mM): ns
- IL-7 (PMA), p of decrement (24 h, TNF-α vs Lev 0.5 mM): ns
- IL-8 (PMA), p of decrement (24 h, TNF-α vs Lev 0.5 mM): ns
- IP-10 (PMA), p of decrement (24 h, TNF-α vs Lev 0.5 mM): ns
- MCP-1 (PMA), p of decrement (24 h, TNF-α vs Lev 0.5 mM): ns
- MIP-1α (PMA), p of decrement (24 h, TNF-α vs Lev 0.5 mM): ns
- MIP-1β (PMA), p of decrement (24 h, TNF-α vs Lev 0.5 mM): ns
- RANTES (PMA), p of decrement (24 h, TNF-α vs Lev 0.5 mM): ns
- VEGF (PMA), p of decrement (24 h, TNF-α vs Lev 0.5 mM): ns
- Fractalkine (PMA), p of decrement (24 h, TNF-α vs Lev 1.0 mM): ns
- IL-1ra (PMA), p of decrement (24 h, TNF-α vs Lev 1.0 mM): ns
- IL-1α (PMA), p of decrement (24 h, TNF-α vs Lev 1.0 mM): ns
- IL-1β (PMA), p of decrement (24 h, TNF-α vs Lev 1.0 mM): p < 0.05
- IL-5 (PMA), p of decrement (24 h, TNF-α vs Lev 1.0 mM): ns
- IL-7 (PMA), p of decrement (24 h, TNF-α vs Lev 1.0 mM): ns
- IL-8 (PMA), p of decrement (24 h, TNF-α vs Lev 1.0 mM): ns
- IP-10 (PMA), p of decrement (24 h, TNF-α vs Lev 1.0 mM): ns
- MCP-1 (PMA), p of decrement (24 h, TNF-α vs Lev 1.0 mM): ns
- MIP-1α (PMA), p of decrement (24 h, TNF-α vs Lev 1.0 mM): ns
- MIP-1β (PMA), p of decrement (24 h, TNF-α vs Lev 1.0 mM): ns
- RANTES (PMA), p of decrement (24 h, TNF-α vs Lev 1.0 mM): ns
- VEGF (PMA), p of decrement (24 h, TNF-α vs Lev 1.0 mM): p < 0.05
- Fractalkine (PMA), p of decrement (24 h, TNF-α vs Lev 2.3 mM): p < 0.01
- IL-1ra (PMA), p of decrement (24 h, TNF-α vs Lev 2.3 mM): ns
- IL-1α (PMA), p of decrement (24 h, TNF-α vs Lev 2.3 mM): ns
- IL-1β (PMA), p of decrement (24 h, TNF-α vs Lev 2.3 mM): ns
- IL-5 (PMA), p of decrement (24 h, TNF-α vs Lev 2.3 mM): ns
- IL-7 (PMA), p of decrement (24 h, TNF-α vs Lev 2.3 mM): ns
- IL-8 (PMA), p of decrement (24 h, TNF-α vs Lev 2.3 mM): ns
- IP-10 (PMA), p of decrement (24 h, TNF-α vs Lev 2.3 mM): ns
- MCP-1 (PMA), p of decrement (24 h, TNF-α vs Lev 2.3 mM): ns
- MIP-1α (PMA), p of decrement (24 h, TNF-α vs Lev 2.3 mM): ns
- MIP-1β (PMA), p of decrement (24 h, TNF-α vs Lev 2.3 mM): ns
- RANTES (PMA), p of decrement (24 h, TNF-α vs Lev 2.3 mM): ns
- VEGF (PMA), p of decrement (24 h, TNF-α vs Lev 2.3 mM): p < 0.01
- Fractalkine (PMA), p of decrement [6]: ns
- G-CSF (PMA), p of decrement [6]: Increase
- GM-CSF (PMA), p of decrement [6]: ns
- IL-1ra (PMA), p of decrement [6]: Increase
- IL-1α (PMA), p of decrement [6]: Increase
- IL-1β (PMA), p of decrement [6]: ns
- IL-5 (PMA), p of decrement [6]: ns
- IL-6 (PMA), p of decrement [6]: ns
- IL-7 (PMA), p of decrement [6]: Increase
- IL-8 (PMA), p of decrement [6]: Increase
- IL-10 (PMA), p of decrement [6]: ns
- IL-12p40 (PMA), p of decrement [6]: P < 0.01
- IP-10 (PMA), p of decrement [6]: ns
- MCP-1 (PMA), p of decrement [6]: Increase
- MIP-1α (PMA), p of decrement [6]: Increase
- MIP-1β (PMA), p of decrement [6]: Increase
- RANTES (PMA), p of decrement [6]: Increase
- TGF-α (PMA), p of decrement [6]: ns
- VEGF (PMA), p of decrement [6]: P < 0.001
- release of VEGF (FIG. 4 Panel A) (EoL-1 cells differentiated with PMA 24 h before the experiment): able to reduce the release
- IL-8 release (FIG. 9) (PMA differentiated EoL-1 cells after TNF-α challenge): able to reduce
